{"source": "patent US6472398B1", "about": "“Spiropiperidine derivatives as melanocortin receptor agonists” (Merck & Co., Inc., priority 2000, dated 2002)", "origin": "cited, not measured here", "key": {"rodents": {"tested_on": "rodents", "settings": "ICV; NPY, ob/ob, agouti, fasted feeding models"}, "[1]": {"tested_on": "males with psychogenic erectile dysfunction"}, "[2]": {"tested_on": "patients with erectile dysfunction", "settings": "for duration of effect / onset of action: after an oral dose; for share of patients with adequate response: oral, men with erectile dysfunction"}}, "data": [{"compound": "Ac-Nle-c[Asp-His-DPhe-Arg-Trp-Lys]-NH2 [MT-II]", "values": [{"measurement": "effect on food intake", "setting": "rodents", "result": "reduces food intake"}, {"measurement": "duration of action", "setting": "[1]; in vivo", "result": "approximately 2.5 hours"}, {"measurement": "time to onset of erection", "setting": "[1]; in vivo", "result": "10 to 20", "unit": "min"}, {"measurement": "absorption into the systemic circulation", "setting": "[1]; in vivo, po", "result": "not absorbed into the systemic circulation"}, {"measurement": "response rate", "setting": "[1]; injected intramuscularly or subcutaneously", "result": 75, "unit": "%"}]}, {"compound": "CCCc1nn(C)c2c(=O)[nH]c(-c3cc(S(=O)(=O)N4CCN(C)CC4)ccc3OCC)nc12", "note": "[sildenafil]", "values": [{"measurement": "duration of effect", "setting": "[2]", "result": "about 4 hours"}, {"measurement": "onset of action", "setting": "[2]", "result": "30 to 60", "unit": "min"}, {"measurement": "share of patients with adequate response", "setting": "[2]", "result": "about 70%"}]}, {"compound": "SHU-9119", "values": [{"measurement": "effect on food intake", "setting": "rodents", "result": "reverses this effect and can induce hyperphagia"}]}, {"compound": "Cc1ccc(N(CC2=NCCN2)c2cccc(O)c2)cc1", "note": "[phentolamine]", "values": [{"measurement": "duration of effect", "setting": "[2]", "result": 2, "unit": "h"}, {"measurement": "onset of action", "setting": "[2]", "result": "5 to 30", "unit": "min"}, {"measurement": "share of patients with adequate response", "setting": "[2]", "result": "35-40%"}]}]}
